In PubChem BioAssay AID328 (DTP/NCI, 2004):
“And” between values parts separate entries of the source, which are not always exact repeats. Equal entries are not always repeated. Toxic doses and inconclusive results are not listed. How the source made its calls: active means survival T/C of 150% or more; inactive means T/C below 125% in these data.

Test system: BDF1 mice, P388 leukemia ip, median survival T/C
Test: NCI In Vivo Anticancer Drug Screen. Data for tumor model P388 Leukemia (intraperitoneal) in B6D2F1 (BDF1) mice
Conditions: endpoint: median survival time, higher = longer survival
Procedure, shortened: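 Reported as T/C, where T is the survival measurement in dosed animals and C the same measurement in vehicle controls.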

[1] = dose: 100.0 mg/kg/injection, schedule: Q01DX009 (ip), vehicle: saline with Tween-80
[2] = dose: 100.0 mg/kg/injection, schedule: Q04DX003 (ip), vehicle: saline with Tween-80
[3] = dose: 50.0 mg/kg/injection, schedule: Q01DX009 (ip), vehicle: saline with Tween-80
[4] = dose: 200.0 mg/kg/injection, schedule: Q01DX009 (ip), vehicle: saline with Tween-80

Measured: T/C

CC(=O)[O][Pb]([O]C(C)=O)([c]1ccccc1)[c]1ccccc1
active: dose: 44.0 mg/kg/injection, schedule: Q01DX009 (ip), vehicle: saline with Tween-80 177 % of control | dose: 66.0 mg/kg/injection, schedule: Q01DX009 (ip), vehicle: saline with Tween-80 184 % of control | [1] 201 % of control
inactive: dose: 150.0 mg/kg/injection, schedule: Q01DX009 (ip), vehicle: saline with Tween-80 93 % of control

O=C(NC(=O)C(F)(F)C(F)(F)F)Nc1cccc(F)c1
inactive: dose: 50.0 mg/kg/injection, schedule: Q01DX009 (ip), vehicle: Klucel (hydroxypropylcellulose) (HPC) 116 % of control | dose: 100.0 mg/kg/injection, schedule: Q01DX009 (ip), vehicle: Klucel (hydroxypropylcellulose) (HPC) 122 % of control

FC(F)(F)C(F)(F)C(F)(F)c1nc2nc(Cl)c(Cl)nc2[nH]1
inactive: dose: 3.12 mg/kg/injection, schedule: Q01DX009 (ip), vehicle: saline with Tween-80 115 % of control | dose: 6.25 mg/kg/injection, schedule: Q01DX009 (ip), vehicle: saline with Tween-80 105 % of control | dose: 12.5 mg/kg/injection, schedule: Q01DX009 (ip), vehicle: saline with Tween-80 95 % of control | dose: 50.0 mg/kg/injection, schedule: Q04DX003 (ip), vehicle: saline with Tween-80 95 % of control | [2] 90 % of control

C=C1N(C)c2ccccc2C1(C)C
inactive: dose: 1.47 mg/kg/injection, schedule: Q01DX009 (ip), vehicle: saline with Tween-80 104 % of control | dose: 2.95 mg/kg/injection, schedule: Q01DX009 (ip), vehicle: saline with Tween-80 118 % of control | dose: 5.9 mg/kg/injection, schedule: Q01DX009 (ip), vehicle: saline with Tween-80 122 % of control

C=C(C)CNc1ccccc1
inactive: dose: 25.0 mg/kg/injection, schedule: Q01DX009 (ip), vehicle: saline with Tween-80 119 % of control | [3] 123 % of control | [1] 103 % of control and 123 % of control

CN1CCN(c2nc3ccccc3n3nnnc23)CC1
inactive: dose: 18.75 mg/kg/injection, schedule: Q01DX009 (ip), vehicle: saline with Tween-80 103 % of control | dose: 37.5 mg/kg/injection, schedule: Q01DX009 (ip), vehicle: saline with Tween-80 100 % of control

C[C@]12CCC(=O)C=C1CC[C@@H]1[C@@H]2[C@@H](O)C[C@@]2(C)[C@H]1CC[C@]2(O)C(=O)COC(=O)CCC(=O)O
inactive: dose: 50.0 mg/kg/injection, schedule: Q01DX009 (sc), vehicle: steriod suspending solution 111 % of control | dose: 100.0 mg/kg/injection, schedule: Q01DX009 (sc), vehicle: steriod suspending solution 111 % of control | dose: 100.0 mg/kg/injection, schedule: Q04DX003 (sc), vehicle: steriod suspending solution 100 % of control | dose: 200.0 mg/kg/injection, schedule: Q01DX009 (sc), vehicle: steriod suspending solution 116 % of control | dose: 200.0 mg/kg/injection, schedule: Q04DX003 (sc), vehicle: steriod suspending solution 104 % of control | dose: 400.0 mg/kg/injection, schedule: Q01DX009 (sc), vehicle: steriod suspending solution 111 % of control | dose: 400.0 mg/kg/injection, schedule: Q04DX003 (sc), vehicle: steriod suspending solution 100 % of control

CCS(=O)(=O)c1cccc2nncn12
inactive: dose: 100.0 mg/kg/injection, schedule: Q01DX001 (ip), vehicle: saline with Tween-80 108 % of control | dose: 200.0 mg/kg/injection, schedule: Q01DX001 (ip), vehicle: saline with Tween-80 106 % of control | dose: 400.0 mg/kg/injection, schedule: Q01DX001 (ip), vehicle: saline with Tween-80 100 % of control

Cc1ccc(Sc2cccc3c(C)c4cccc5c4c(c23)C[S+]5c2ccc(C)cc2)cc1 (stereo unspecified)
inactive: dose: 1.5 mg/kg/injection, schedule: Q04DX003 (ip), vehicle: saline with Tween-80 100 % of control | dose: 3.0 mg/kg/injection, schedule: Q04DX003 (ip), vehicle: saline with Tween-80 104 % of control | dose: 6.0 mg/kg/injection, schedule: Q04DX003 (ip), vehicle: saline with Tween-80 100 % of control

COc1ccc2c(c1)CCC1C2CCC2(C)/C(=N/O)C3OC3C12 (stereo unspecified)
inactive: [3] 121 % of control | [1] 111 % of control | [4] 111 % of control

O=C(O)C(O)C(=O)O
inactive: dose: 100.0 mg/kg/injection, schedule: Q04DX003 (ip), vehicle: saline 95 % of control

COC1CC(O)C(O)C(C)O1 (stereo unspecified)
inactive: [3] 97 % of control | dose: 50.0 mg/kg/injection, schedule: Q01DX009 (ip), vehicle: saline 100 % of control | [1] 95 % of control | dose: 100.0 mg/kg/injection, schedule: Q01DX009 (ip), vehicle: saline 107 % of control | [2] 106 % of control | [4] 100 % of control | dose: 200.0 mg/kg/injection, schedule: Q01DX009 (ip), vehicle: saline 118 % of control | dose: 200.0 mg/kg/injection, schedule: Q04DX003 (ip), vehicle: saline with Tween-80 101 % of control | dose: 400.0 mg/kg/injection, schedule: Q01DX009 (ip), vehicle: saline with Tween-80 95 % of control | dose: 400.0 mg/kg/injection, schedule: Q01DX009 (ip), vehicle: saline 99 % of control | dose: 400.0 mg/kg/injection, schedule: Q04DX003 (ip), vehicle: saline with Tween-80 99 % of control

O=NN(CCCl)C(=O)Nc1ccc(CCO)cc1
active: dose: 0.5 mg/kg/injection, schedule: Q01DX009 (ip), vehicle: alcohol 150 % of control | dose: 0.5 mg/kg/injection, schedule: Q01DX009 (ip), vehicle: other 181 % of control | dose: 0.5 mg/kg/injection, schedule: Q04DX003 (ip), vehicle: saline + alcohol 155 % of control | dose: 1.0 mg/kg/injection, schedule: Q01DX009 (ip), vehicle: Klucel (hydroxypropylcellulose) (HPC) 150 % of control | dose: 1.0 mg/kg/injection, schedule: Q01DX009 (ip), vehicle: alcohol 183 % of control | dose: 1.0 mg/kg/injection, schedule: Q01DX009 (ip), vehicle: other 181 % of control | dose: 1.0 mg/kg/injection, schedule: Q04DX003 (ip), vehicle: saline + alcohol 188 % of control | dose: 1.65 mg/kg/injection, schedule: Q01DX009 (ip), vehicle: Klucel (hydroxypropylcellulose) (HPC) 200 % of control | dose: 1.65 mg/kg/injection, schedule: Q01DX009 (ip), vehicle: saline 266 % of control | dose: 2.0 mg/kg/injection, schedule: Q01DX009 (ip), vehicle: alcohol 237 % of control | dose: 2.0 mg/kg/injection, schedule: Q01DX009 (ip), vehicle: other 254 % of control | dose: 2.0 mg/kg/injection, schedule: Q04DX003 (ip), vehicle: saline + alcohol 255 % of control | dose: 2.5 mg/kg/injection, schedule: Q01DX009 (ip), vehicle: Klucel (hydroxypropylcellulose) (HPC) 257 % of control | dose: 2.5 mg/kg/injection, schedule: Q01DX009 (ip), vehicle: saline with Tween-80 240 % of control | dose: 2.5 mg/kg/injection, schedule: Q01DX009 (ip), vehicle: saline 333 % of control | dose: 3.75 mg/kg/injection, schedule: Q01DX009 (ip), vehicle: Klucel (hydroxypropylcellulose) (HPC) 289 % of control | dose: 3.75 mg/kg/injection, schedule: Q01DX009 (ip), vehicle: saline 333 % of control | dose: 4.0 mg/kg/injection, schedule: Q01DX009 (ip), vehicle: alcohol 250 % of control | dose: 4.0 mg/kg/injection, schedule: Q01DX009 (ip), vehicle: other 272 % of control | dose: 4.0 mg/kg/injection, schedule: Q04DX003 (ip), vehicle: saline + alcohol 322 % of control | dose: 5.0 mg/kg/injection, schedule: Q01DX009 (ip), vehicle: saline with Tween-80 270 % of control | dose: 6.25 mg/kg/injection, schedule: Q01DX009 (ip), vehicle: saline 180 % of control | dose: 6.25 mg/kg/injection, schedule: Q04DX003 (ip), vehicle: saline + alcohol 272 % of control | dose: 12.5 mg/kg/injection, schedule: Q04DX003 (ip), vehicle: saline + alcohol 272 % of control
inactive: dose: 0.12 mg/kg/injection, schedule: Q04DX003 (ip), vehicle: saline 100 % of control | dose: 0.13 mg/kg/injection, schedule: Q01DX009 (ip), vehicle: Klucel (hydroxypropylcellulose) (HPC) 112 % of control | dose: 0.2 mg/kg/injection, schedule: Q01DX009 (ip), vehicle: Klucel (hydroxypropylcellulose) (HPC) 91 % of control | dose: 0.2 mg/kg/injection, schedule: Q01DX009 (ip), vehicle: alcohol 100 % of control | dose: 0.25 mg/kg/injection, schedule: Q04DX003 (ip), vehicle: saline 104 % of control | dose: 0.3 mg/kg/injection, schedule: Q01DX009 (ip), vehicle: alcohol 108 % of control | dose: 0.5 mg/kg/injection, schedule: Q04DX003 (ip), vehicle: saline 117 % of control | dose: 10.0 mg/kg/injection, schedule: Q01DX009 (ip), vehicle: saline with Tween-80 110 % of control | dose: 12.5 mg/kg/injection, schedule: Q01DX009 (ip), vehicle: saline 100 % of control | dose: 25.0 mg/kg/injection, schedule: Q04DX003 (ip), vehicle: saline sonified 90 % of control
